Reference: patent US8318105B2, “Systems and methods for biomarker analysis” (priority 2010, dated 2012)
Where “and” joins values, the source holds several entries; their conditions need not be identical. Equal entries are not always repeated.

Key:
peroxidase = test: Peroxidase assay in saliva (Amplex Red); type: biochemical; details: compound prepared at 500 ppm, 30 minutes, FIGS. 26-29
Procedure: To determine the effect of various GRAS compounds as inhibitors of peroxidase activity, a standard assay using Amplex® Red (Life Technologies), which releases a fluorescent oxidation product.
The test compounds, such as GRAS materials or cocktails of same, were prepared at a concentration of 500 ppm in distilled water. For the assay, 50 μl samples of test compounds were mixed with 20-30 μl of saliva (either “pooled” or “unpooled”) prior to the addition of Amplex® Red. […] Reactions were allowed to run for 30 minutes during these assays.

α-amylase = target: T1, α-amylase (Homo sapiens, UniProt P0DUB6); test: α-Amylase inhibition saliva screening (chromogenic substrate, absorbance 405 nm); type: biochemical; details: test compound prepared at 5,000 ppm, 37° C.; for absorbance at 405 nm, single readings: four replicate readings
T1 sequence (P0DUB6 16-511): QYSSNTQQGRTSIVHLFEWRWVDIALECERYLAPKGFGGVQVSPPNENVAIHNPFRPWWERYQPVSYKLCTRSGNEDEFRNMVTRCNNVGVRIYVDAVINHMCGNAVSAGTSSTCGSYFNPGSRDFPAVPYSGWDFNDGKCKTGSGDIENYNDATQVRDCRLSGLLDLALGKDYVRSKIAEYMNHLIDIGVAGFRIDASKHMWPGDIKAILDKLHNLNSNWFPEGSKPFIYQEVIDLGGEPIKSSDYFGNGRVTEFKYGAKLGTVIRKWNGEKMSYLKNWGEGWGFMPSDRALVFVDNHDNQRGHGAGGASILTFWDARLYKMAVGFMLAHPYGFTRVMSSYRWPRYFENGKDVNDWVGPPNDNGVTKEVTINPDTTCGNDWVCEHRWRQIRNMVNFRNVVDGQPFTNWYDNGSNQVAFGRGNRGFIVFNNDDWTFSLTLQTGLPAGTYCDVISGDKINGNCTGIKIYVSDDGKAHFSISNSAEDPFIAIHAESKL
Text: Further details of these five compounds may also be seen in Table 4.

protease = details: natural protease inhibitors from food; cited from earlier work

In the case of Cn1c(=O)c2c(ncn2C)n(C)c1=O [CDI #33, Caffeine], the peroxidase inhibition (peroxidase) is reported as “significant peroxidase inhibition capabilities”.

With COc1ccc(O)c(C(C)(C)C)c1 [CDI-039, 3-tert--butyl-hydroxyanisole] the peroxidase inhibition (peroxidase) was “significant peroxidase inhibition capabilities”.

For “Aluminum potassium sulfate dodecahydrate [CDI-42]”, the “Ave (absorbance at 405 nm)” value (α-amylase; 0 min) was 0.92, the “absorbance at 405 nm, single readings” value (α-amylase; 0 min) was 0.80 and 1.13 and 0.90 and 0.84 and the “absorbance at 405 nm, single readings” value (α-amylase; 5 min) was 1.65 and 2.15 and 1.80 and 1.81. The “absorbance at 405 nm, single readings” value (α-amylase; 15 min) was 2.37 and 2.38 and 2.25 and 2.17 and the peroxidase inhibition (peroxidase) was “significant peroxidase inhibition capabilities”.

With Aluminum sulfate hydrate [CDI-34] the “Ave (absorbance at 405 nm)” value (α-amylase; 0 min) was 0.40, the “absorbance at 405 nm, single readings” value (α-amylase; 0 min, sulfate hydrate) was 0.40 (2×) and 0.36 and 0.45 and the “Ave (absorbance at 405 nm)” value (α-amylase; 5 min) was 0.50. For the same molecule, the “absorbance at 405 nm, single readings” value (α-amylase; 5 min, sulfate hydrate) was 0.49 and 0.50 (2×) and 0.52, the “Ave (absorbance at 405 nm)” value (α-amylase; 15 min) was 0.56 and the “absorbance at 405 nm, single readings” value (α-amylase; 15 min, sulfate hydrate) was 0.53 and 0.61 and 0.54 and 0.56.

B1: Soybeans: primary soybean protease inhibitor, 20.7-22.3 kDa (protein, UniProt P01070 25-205, looked up)
Trypsin inhibitor A: DFVLDNEGNPLENGGTYYILSDITAFGGIRAAPTGNERCPLTVVQSRNELDKGIGTIISSPYRIRFIAEGHPLSLKFDSFAVIMLCVGIPTEWSVVEDLPEGPAVKIGENKDAMDGWFRLERVSDDEFNNYKLVFCPQQAEDDKCGDIGISIDHDDGTRRLVVSKNKPLVVQFQKLDKESL
In the case of B1, the Inhibitory power (protease) is given as 1.2 times times weight.
